The values that follow come from patent publication US20110275559A1, “Long-Acting Y2 and/or Y4 Receptor Agonists” (Novo Nordisk A/S, priority 2008, published 2011).

Read-outs that look alike come from different tables or passages of the source. *1 amine or outer side, *2 acyl side, *3 side chain or, on linkers, in order; H or OH if unused. Where a SMILES comes first, the peptide text is derived from it. Where no end group is shown, it is not given here. Side-chain parts run from the residue outwards. The star is where a group is joined. C20 diacid = O=C(O)CCCCCCCCCCCCCCCCCCC(=O)*; γGlu = O=C(O)[C@H](CCC(=O)[*:2])N[*:1]; Trx = NC[C@H]1CC[C@H](C(=O)O)CC1; AEEA = NCCOCCOCC(=O)O Some results are limits rather than exact numbers.

Data set [1] deals with T1, Y4 receptor (Homo sapiens, UniProt P50391).
T1 construct: host or cells: ACTOne HEK-293 cells
As to the kind of experiment: Y4 receptor ACTOne based FLIPR assay (cAMP biosensor). Type of data set: cell-based. From the text:
(§1) ACTOne™ is an easily scaleable cAMP biosensor HTS platform for measurement of Gs and Gi coupled 7™ receptor signalling from BD Biosciences (San Jose, Calif.). The cells express a biosensor developed around a modified rat olfactory cyclic nucleotide gated (CNG) calcium channel—a fairly non-discriminatory ion channel that responds to cAMP and cGMP. The CNG has been engineered to be cAMP selective and thus function as a cAMP responsive biosensor that signals through calcium or membrane potential responsive dyes. Y2 or Y4 receptor expressing ACTOne HEK-293 cells are obtained from BD Biosciences. The cells are loaded with a calcium responsive dye that only distributes in the cytoplasm. Probenecid, an inhibitor of the organic anion transporter is added to prevent the dye from leaving the cell. A phosphodiesterase inhibitor is added to prevent formatted cAMP from being degraded. Isoproterenol (an β1/β2 agonist) is added to activate the adenylate cyclase. When an Y2 or Y4 receptor agonist is added, the adenylate cyclase is inactivated. The decreased calcium concentration in the cytoplasm is then detected as an increase in fluorescence. Together with the test substance, Isoproterenol at a concentration matching EC80, is added to all wells. • The cells are plated out in Greiner 384-well plates. […] The plates are covered with tinfoil to avoid light (the dye can be excited by the daylight, which results in higher baseline and variation). • The FLIPR (FLIPRtetra from Molecular Devices, CA, USA) adds 1 μl sample and 1 μl isoproterenol (0.05 μM final concentration) at the same time. • The fluorescence signal from the wells is measured 330 seconds after sample addition on the FLIPR.

The target of data set [2] is T2, Y2 receptor (Homo sapiens, UniProt P49146).
T2 construct: host or cells: ACTOne HEK-293 cells
T2 sequence (P49146 1-381): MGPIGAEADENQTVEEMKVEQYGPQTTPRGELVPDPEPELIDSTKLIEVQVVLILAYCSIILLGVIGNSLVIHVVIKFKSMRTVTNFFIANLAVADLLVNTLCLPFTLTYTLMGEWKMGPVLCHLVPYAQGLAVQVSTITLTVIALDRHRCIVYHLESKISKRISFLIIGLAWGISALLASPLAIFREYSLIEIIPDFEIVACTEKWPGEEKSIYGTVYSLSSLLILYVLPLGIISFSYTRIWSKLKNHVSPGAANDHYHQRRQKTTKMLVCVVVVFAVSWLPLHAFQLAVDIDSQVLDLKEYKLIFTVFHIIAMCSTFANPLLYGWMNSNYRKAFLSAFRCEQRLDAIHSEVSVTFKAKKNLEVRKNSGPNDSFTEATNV
In words: Y2 receptor ACTOne based FLIPR assay (cAMP biosensor). The class given is cell-based.
From the text: as §1

Data set [3] in a line: Mini-pig PK assay (plasma half-life). The note with it: Göttingen, minipig, iv. The method, boiled down:
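Catheterised mini-pigs received compound i.v. at 10 nmol/kg in pH 4.0 phosphate/NaCl/tween vehicle, or alternatively i.v. or s.c. at 1–30 nmol/kg in pH 8.0 K2HPO4/tween. Stabilised plasma was sampled up to 13 days and assayed by LC-MS (LLOQ 2 nM). Half-life came from non-compartmental analysis of individual animal profiles.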

T1 sequence (P50391 whole entry): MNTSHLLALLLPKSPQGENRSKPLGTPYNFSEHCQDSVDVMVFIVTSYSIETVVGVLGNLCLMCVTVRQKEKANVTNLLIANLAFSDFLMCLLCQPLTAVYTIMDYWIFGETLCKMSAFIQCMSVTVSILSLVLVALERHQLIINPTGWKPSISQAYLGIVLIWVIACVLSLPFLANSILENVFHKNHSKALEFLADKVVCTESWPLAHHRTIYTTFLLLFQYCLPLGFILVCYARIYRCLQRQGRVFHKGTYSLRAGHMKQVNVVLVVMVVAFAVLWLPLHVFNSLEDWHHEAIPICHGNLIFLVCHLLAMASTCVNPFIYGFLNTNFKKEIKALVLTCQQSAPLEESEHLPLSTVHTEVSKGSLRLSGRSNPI

As a reminder, the EC50 is the concentration giving half of the maximal effect. Consider `CC[C@H](C)[C@H](NC(=O)[C@H](Cc1ccc(O)cc1)NC(=O)[C@H](CCCNC(=N)N)NC(=O)[C@H](CCCNC(=N)N)NC(=O)[C@H](CC(C)C)NC(=O)[C@H](CC(=O)O)NC(=O)[C@H](C)NC(=O)[C@H](C)NC(=O)[C@H](Cc1ccc(O)cc1)NC(=O)[C@H](CCC(N)=O)NC(=O)[C@H](C)NC(=O)[C@H](CC(C)C)NC(=O)[C@H](CCC(N)=O)NC(=O)[C@H](CCC(=O)O)NC(=O)[C@@H]1CCCN1C(=O)[C@H](CCCCNC(=O)COCCOCCNC(=O)COCCOCCNC(=O)CC[C@H](NC(=O)[C@H]1CC[C@H](CNC(=O)CCCCCCCCCCCCCCCCCCC(=O)O)CC1)C(=O)O)NC(=O)[C@H](C)NC(=O)[C@H](CC(N)=O)NC(=O)[C@H](CC(=O)O)NC(=O)CNC(=O)[C@@H]1CCCN1C(=O)[C@H](Cc1ccc(O)cc1)NC(=O)[C@@H](NC(=O)[C@@H]1CCCN1C(=O)[C@H](CCC(=O)O)NC(=O)[C@H](CC(C)C)NC(=O)[C@@H]1CCCN1C(=O)[C@H](C)N)C(C)C)C(=O)N[C@@H](CC(N)=O)C(=O)N[C@@H](CC(C)C)C(=O)N[C@@H](CC(C)C)C(=O)N[C@H](C(=O)N[C@@H](CCCNC(=N)N)C(=O)N[C@@H](CCC(N)=O)C(=O)N[C@@H](CCCNC(=N)N)C(=O)N[C@@H](Cc1ccc(O)cc1)C(N)=O)[C@@H](C)O` [SEQ ID NO: 4] (H-APLEPVYPGDNAK([AEEA-AEEA-γGlu-Trx-C20 diacid])PEQLAQYAADLRRYINLLTRQRY-NH2; N-terminus and C-terminus assumed), for which the 50% effective concentration (EC50) in data set [1] was 18 nM. `CC[C@H](C)[C@H](NC(=O)[C@H](Cc1ccc(O)cc1)NC(=O)[C@H](CCCNC(=N)N)NC(=O)[C@H](CCCNC(=N)N)NC(=O)[C@H](CC(C)C)NC(=O)[C@H](CC(=O)O)NC(=O)[C@H](C)NC(=O)[C@H](C)NC(=O)[C@H](Cc1ccc(O)cc1)NC(=O)[C@H](CCC(N)=O)NC(=O)[C@H](C)NC(=O)[C@H](CC(C)C)NC(=O)[C@H](CCC(N)=O)NC(=O)[C@H](CCC(=O)O)NC(=O)[C@@H]1CCCN1C(=O)[C@H](CCCCNC(=O)COCCOCCNC(=O)COCCOCCNC(=O)CC[C@H](NC(=O)[C@H]1CC[C@H](CNC(=O)CCCCCCCCCCCCCCCCCCC(=O)O)CC1)C(=O)O)NC(=O)[C@H](C)NC(=O)[C@H](CC(=O)O)NC(=O)[C@H](CC(N)=O)NC(=O)CNC(=O)[C@@H]1CCCN1C(=O)[C@H](Cc1ccc(O)cc1)NC(=O)[C@@H](NC(=O)[C@@H]1CCCN1C(=O)[C@H](CCC(=O)O)NC(=O)[C@H](CC(C)C)NC(=O)[C@@H]1CCCN1C(=O)[C@H](C)N)C(C)C)C(=O)N[C@@H](CC(N)=O)C(=O)N[C@@H](CC(C)C)C(=O)N[C@H](C(=O)N[C@H](C(=O)N[C@@H](CCCNC(=N)N)C(=O)N1CCC[C@H]1C(=O)N[C@@H](CCCNC(=N)N)C(=O)N[C@@H](Cc1ccc(O)cc1)C(N)=O)[C@@H](C)O)C(C)C` [SEQ ID NO: 14, N-epsilon13-[2-(2-{2-[2-(2-{2-[(S)-4-Carboxy-4-({trans-4-[(19-carboxynonadecanoylamino)methyl]cyclohexanecarbonyl}amino)butyrylamino]-eth-oxy}ethoxy)acetylamino]ethoxy}ethoxy)acetyl][Asn10,Asp11,Lys13,Leu17,Leu30,Val31]hPP(1-36)] (H-APLEPVYPGNDAK([AEEA-AEEA-γGlu-Trx-C20 diacid])PEQLAQYAADLRRYINLVTRPRY-NH2; N-terminus and C-terminus assumed): in data set [1], a half-maximal response (EC50) required 18 nM. Still for that read-out and setting: the result for `CC(C)C[C@H](NC(=O)[C@H](CCC(N)=O)NC(=O)[C@H](CCC(=O)O)NC(=O)[C@@H]1CCCN1C(=O)[C@H](CCCCNC(=O)COCCOCCNC(=O)COCCOCCNC(=O)CC[C@H](NC(=O)[C@H]1CC[C@H](CNC(=O)CCCCCCCCCCCCCCCCCCC(=O)O)CC1)C(=O)O)NC(=O)[C@H](C)NC(=O)[C@H](CC(N)=O)NC(=O)[C@H](CC(=O)O)NC(=O)CNC(=O)[C@@H]1CCCN1C(=O)[C@H](Cc1ccc(O)cc1)NC(=O)[C@@H](NC(=O)[C@@H]1CCCN1C(=O)[C@H](CCC(=O)O)NC(=O)[C@H](CC(C)C)NC(=O)[C@@H]1CCCN1C(=O)[C@H](C)N)C(C)C)C(=O)N[C@@H](C)C(=O)N[C@@H](CCC(N)=O)C(=O)N[C@@H](Cc1ccc(O)cc1)C(=O)N[C@@H](C)C(=O)N[C@@H](C)C(=O)N[C@@H](CC(=O)O)C(=O)N[C@@H](CC(C)C)C(=O)N[C@@H](CCCNC(=N)N)C(=O)N[C@@H](CCCNC(=N)N)C(=O)N[C@@H](Cc1ccc(O)cc1)C(=O)N[C@@H](CC(C)C)C(=O)N[C@@H](CC(N)=O)C(=O)N[C@H](C(=O)N[C@@H](CC(C)C)C(=O)N[C@H](C(=O)N[C@@H](CCCNC(=N)N)C(=O)N[C@@H](CCC(N)=O)C(=O)N[C@@H](CCCNC(=N)N)C(=O)N[C@@H](Cc1ccc(O)cc1)C(N)=O)[C@@H](C)O)C(C)C` [SEQ ID NO: 15, N-epsilon13-[2-(2-{2-[2-(2-{2-[(S)-4-Carboxy-4-({trans-4-[(19-carboxynonadecanoylamino)methyl]cyclohexanecarbonyl}amino)butyrylamino]-eth-oxy}ethoxy)acetylamino]ethoxy}ethoxy)acetyl][Lys13,Leu17,Leu28,Val30,Gln34]hPP(1-36)] (H-APLEPVYPGDNAK([AEEA-AEEA-γGlu-Trx-C20 diacid])PEQLAQYAADLRRYLNVLTRQRY-NH2; N-terminus and C-terminus assumed) reads 7 nM. As a reminder, the half-life is how long it takes for the measured level to halve. Higher therefore signals slow loss. `CC[C@H](C)[C@H](NC(=O)[C@H](Cc1ccc(O)cc1)NC(=O)[C@H](CCCNC(=N)N)NC(=O)[C@H](CCCNC(=N)N)NC(=O)[C@H](CC(C)C)NC(=O)[C@H](CC(=O)O)NC(=O)[C@H](C)NC(=O)[C@H](C)NC(=O)[C@H](Cc1ccc(O)cc1)NC(=O)[C@H](CCC(N)=O)NC(=O)[C@H](C)NC(=O)[C@H](CC(C)C)NC(=O)[C@H](CCC(N)=O)NC(=O)[C@H](CCC(=O)O)NC(=O)[C@@H]1CCCN1C(=O)[C@@H](NC(=O)[C@H](C)NC(=O)[C@H](CC(N)=O)NC(=O)[C@H](CC(=O)O)NC(=O)CNC(=O)[C@@H]1CCCN1C(=O)[C@H](Cc1ccc(O)cc1)NC(=O)[C@@H](NC(=O)[C@@H]1CCCN1C(=O)[C@H](CCC(=O)O)NC(=O)[C@H](CC(C)C)NC(=O)[C@@H]1CCCN1C(=O)[C@H](C)NC(=O)COCCOCCNC(=O)COCCOCCNC(=O)CC[C@H](NC(=O)[C@H]1CC[C@H](CNC(=O)CCCCCCCCCCCCCCCCCCC(=O)O)CC1)C(=O)O)C(C)C)[C@@H](C)O)C(=O)N[C@@H](CC(N)=O)C(=O)N[C@@H](CC(C)C)C(=O)N[C@@H](CC(C)C)C(=O)N[C@H](C(=O)N[C@@H](CCCNC(=N)N)C(=O)N1CCC[C@H]1C(=O)N[C@@H](CCCNC(=N)N)C(=O)N[C@@H](Cc1ccc(O)cc1)C(N)=O)[C@@H](C)O` [SEQ ID NO: 75, N-alfa-[2-(2-{2-[2-(2-{2-[(S)-4-Carboxy-4-({trans-4-[(19-carboxynonadecanoylamino)methyl]cyclohexanecarbonyl}amino)butyrylamino]-ethoxy}ethoxy)acetylamino]ethoxy}ethoxy)acetyl][Leu17,Leu30]hPP1-36] ({C20 diacid-Trx-γGlu-AEEA-AEEA}-APLEPVYPGDNATPEQLAQYAADLRRYINLLTRPRY-NH2; C-terminus assumed): in data set [2], the EC50 was greater than 1000 nM. Further, in data set [3] (in vivo, 10 nmol/kg), the half-life is 48 h. Consider “PLEPVYPGDNATPEQLAQYAADLRRYINLLTRPRY-NH2 (C-terminus assumed) [SEQ ID NO: 73, [Leu17,Leu30]hPP2-36, reference compound]”, for which, in data set [2] (Table 2, PP analogues, ACTOne HEK-293 cells, read-out: Y2 cAMP EC50), the EC50 was greater than 1000 nM. This compound also showed a half-life in data set [3] (50 nmol/kg) of 0.55 h.
